# Measurements taken from PubChem BioAssay AID330 (DTP/NCI, 2004).
# Where “and” joins values, the source holds several entries; their conditions need not be identical. Equal values may be shown once. Toxic doses and inconclusive results are not listed.
# Tested on: P388 leukemia ip, CD2F1 mice, survival T/C
# Assay: NCI In Vivo Anticancer Drug Screen. Data for tumor model P388 Leukemia (intraperitoneal) in CD2F1 (CDF1) mice
# Settings: endpoint: median survival time, higher = longer survival
# In short: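 Mice carrying the transplanted tumor received test compound or vehicle. Survival was recorded in each group, and the value is the treated-group measurement divided by that of the vehicle-treated control group.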
# [1] = dose: 50.0 mg/kg/injection, schedule: Q04DX003 (ip), vehicle: saline with Tween-80
# [2] = dose: 100.0 mg/kg/injection, schedule: Q04DX003 (ip), vehicle: saline with Tween-80
# [3] = dose: 50.0 mg/kg/injection, schedule: Q01DX009 (ip), vehicle: Klucel (hydroxypropylcellulose) (HPC)
# [4] = dose: 100.0 mg/kg/injection, schedule: Q01DX009 (ip), vehicle: Klucel (hydroxypropylcellulose) (HPC)
# [5] = dose: 200.0 mg/kg/injection, schedule: Q01DX009 (ip), vehicle: Klucel (hydroxypropylcellulose) (HPC)
smiles,measurement,setting,value
Cc1cc(NC(=O)NCc2ccc(N3C(N)=NC(N)=NC3(C)C)cc2)ccc1S(=O)(=O)F,T/C,"dose: 12.5 mg/kg/injection, schedule: Q01DX009 (ip), vehicle: saline with Tween-80",119 % of control
same,T/C,"dose: 25.0 mg/kg/injection, schedule: Q04DX003 (ip), vehicle: saline with Tween-80",105 % of control
same,T/C,"dose: 25.0 mg/kg/injection, schedule: Q04DX003 (ip), vehicle: saline",109 % of control
same,T/C,[1],119 % of control
same,T/C,"dose: 100.0 mg/kg/injection, schedule: Q01DX009 (ip), vehicle: saline with Tween-80",176 % of control
same,T/C,[2],153 % of control
same,T/C,"dose: 200.0 mg/kg/injection, schedule: Q04DX003 (ip), vehicle: saline with Tween-80",164 % of control
same,T/C,"dose: 200.0 mg/kg/injection, schedule: Q04DX003 (ip), vehicle: saline",154 % of control
same,T/C,"dose: 400.0 mg/kg/injection, schedule: Q04DX003 (ip), vehicle: saline",90 % of control
N#CC1C(=O)NC(=S)NC1c1ccco1 (centres undefined),T/C,[3],100 % of control
same,T/C,[4],95 % of control
same,T/C,[5],92 % of control
O=C1c2ccccc2-c2nnsc21,T/C,"dose: 60.0 mg/kg/injection, schedule: Q01DX005 (ip), vehicle: Klucel (hydroxypropylcellulose) (HPC)",98 % of control
same,T/C,"dose: 120.0 mg/kg/injection, schedule: Q01DX005 (ip), vehicle: Klucel (hydroxypropylcellulose) (HPC)",107 % of control
same,T/C,"dose: 240.0 mg/kg/injection, schedule: Q01DX005 (ip), vehicle: Klucel (hydroxypropylcellulose) (HPC)",100 % of control
O=C(O)c1ccc(N=NNc2ccc(C(=O)O)cc2)cc1,T/C,[3],96 % of control
same,T/C,[4],99 % of control
same,T/C,[5],95 % of control
same,T/C,"dose: 400.0 mg/kg/injection, schedule: Q01DX009 (ip), vehicle: Klucel (hydroxypropylcellulose) (HPC)",96 % of control
Cc1cccc(C2(Br)C(=O)c3ccccc3C2=O)c1,T/C,"dose: 100.0 mg/kg/injection, schedule: Q04DX002 (ip), vehicle: saline",102 % of control
same,T/C,"dose: 200.0 mg/kg/injection, schedule: Q04DX002 (ip), vehicle: saline",103 % of control
same,T/C,"dose: 400.0 mg/kg/injection, schedule: Q04DX002 (ip), vehicle: saline",102 % of control
COC(=O)C12CC(CCC1C13CC=CC(C)(C)C1C(=O)OC3)C(C)C2=O (centres undefined),T/C,"dose: 100.0 mg/kg/injection, schedule: Q04DX002 (ip), vehicle: saline with Tween-80",92 % of control
same,T/C,"dose: 200.0 mg/kg/injection, schedule: Q04DX002 (ip), vehicle: saline with Tween-80",95 % of control
same,T/C,"dose: 400.0 mg/kg/injection, schedule: Q04DX002 (ip), vehicle: saline with Tween-80",103 % of control
OC(C[n+]1ccccc1)c1ccc2c(c1)OCO2 (centres undefined),T/C,"dose: 50.0 mg/kg/injection, schedule: Q01DX005 (ip), vehicle: saline with Tween-80",106 % of control
same,T/C,"dose: 100.0 mg/kg/injection, schedule: Q01DX005 (ip), vehicle: saline with Tween-80",97 % of control
NCCCSc1ccccc1,T/C,"dose: 60.0 mg/kg/injection, schedule: Q01DX005 (ip), vehicle: saline",99 % of control
same,T/C,"dose: 120.0 mg/kg/injection, schedule: Q01DX005 (ip), vehicle: saline",97 % of control
CSc1ncnc2c1ncn2C1OC(CO)C(O)OC1O (centres undefined),T/C,"dose: 16.5 mg/kg/injection, schedule: Q01DX009 (ip), vehicle: saline with Tween-80",122 % of control
same,T/C,[1],109 % of control
same,T/C,"dose: 66.0 mg/kg/injection, schedule: Q04DX003 (ip), vehicle: saline with Tween-80",112 % of control
same,T/C,[2],108 % of control
CCc1nc2c(cnn2C)c(=O)n1-c1ccc(C)cc1,T/C,"dose: 50.0 mg/kg/injection, schedule: Q01DX005 (ip), vehicle: Klucel (hydroxypropylcellulose) (HPC)",97 % of control
same,T/C,"dose: 100.0 mg/kg/injection, schedule: Q01DX005 (ip), vehicle: Klucel (hydroxypropylcellulose) (HPC)",101 % of control
same,T/C,"dose: 200.0 mg/kg/injection, schedule: Q01DX005 (ip), vehicle: Klucel (hydroxypropylcellulose) (HPC)",98 % of control
CCCCCCC(=O)OCCN1CCN(CC/C=C2\c3ccccc3Sc3ccc(C(F)(F)F)cc32)CC1,T/C,"dose: 12.5 mg/kg/injection, schedule: Q01DX009 (ip), vehicle: saline",100 % of control and 95 % of control
same,T/C,"dose: 12.5 mg/kg/injection, schedule: Q01DX009 (ip), vehicle: suspension in saline",98 % of control
same,T/C,"dose: 25.0 mg/kg/injection, schedule: Q01DX009 (ip), vehicle: saline",112 % of control
same,T/C,"dose: 25.0 mg/kg/injection, schedule: Q01DX009 (ip), vehicle: suspension in saline",102 % of control and 94 % of control
same,T/C,"dose: 50.0 mg/kg/injection, schedule: Q01DX009 (ip), vehicle: saline",106 % of control and 95 % of control
same,T/C,"dose: 50.0 mg/kg/injection, schedule: Q01DX009 (ip), vehicle: suspension in saline",100 % of control and 123 % of control and 92 % of control
same,T/C,"dose: 100.0 mg/kg/injection, schedule: Q01DX009 (ip), vehicle: saline",99 % of control and 113 % of control
same,T/C,"dose: 100.0 mg/kg/injection, schedule: Q01DX009 (ip), vehicle: suspension in saline",107 % of control (2×) and 92 % of control
